Assay [1] concerns ADAR1. The assay is described as follows: qPCR analysis of ADAR1 mRNA level and isoforms. Conditions: CRC cells transiently transfected, 100 ng/ml. It is filed as cell-based, human. On the procedure: C, qPCR analysis of total ADAR1 mRNA level after treatment with 5-AZA-CdR (300 nM, for 5 days) or transfection with 100 ng ml-1 poly(I:C) over a course of 24 days. Cells were washed out at day 5 and seeded in drug-free medium. Data are mean±s.e.m.****P<0.0001, Sidak-corrected two-way ANOVA.
A, ADAR1 isoforms (p110 and p150) relative expression analysed by qPCR. LACZ denotes ADAR1WT; PIC denotes 100 ng/ml poly (I:C) for 5 days; AZA denotes 300 nM 5-AZA-CdR for 5 days). Data are mean±s.e.m. (n=3 from three independent experiments). ***P<0.001, ****P<0.0001, Tukey-corrected two-way ANOVA.
To test this hypothesis, we first determined if ADAR1 depletion affects dsRNA formation by IR-Alus in untreated patient-derived CRCs. We generated ADAR1 knock-down CRCs using two different hairpin RNAs (ADAR1^KDA/B) and confirmed depletion of both the constitutively expressed (p110) and interferon-inducible (p150) ADAR1 isoforms (FIG. 8A). […] To determine if MDA5 ligands also increase upon ADAR1 depletion, we performed the MDA5 protection assay followed by RNA-Seq, as above. […] Again, these immunogenic Alus were primarily IR-Alu pairs unidirectionally transcribed in either the sense (+/+) or antisense (−/−) direction and induced upon ADAR1 depletion (FIG. 9C-J).
Next, we tested whether epigenetic therapy can induce and activate ADAR1 editing activity.
A general note: Quantitative PCR measures a nucleic acid by following its amplification.

Assay [2] deals with interferon stimulated genes (ISG15, DDX58 and IRF7). The assay is described as follows: interferon response / ISG expression by RNA-seq GSEA and qRT-PCR in patient-derived CRC cells. It is filed as cell-based, human. As to conditions: transfection in wild-type and ADAR1-depleted cells, across time-points. From the text:
H, Geneset Enrichment Analysis showing an enrichment of the geneset ‘Hallmark_Interferon_Alpha_Response’ in ADAR1^KD 5-AZA-treated cells compared to ADAR1^WT 5-AZA-CdR treated cells.
I, Interferon-responsive geneset enrichment score in mock-treated ADAR1^WT, 5-AZA-CdR-treated ADAR1^WT, mock-treated ADAR1^KD, and 5-AZA-CdR-treated ADAR1^KD conditions. Samples were collected 5, 14, and 24 days post-treatment.
B, Kinetics of interferon stimulated genes (ISG15, DDX58 and IRF7) relative expression in ADAR1^WT (Black) and ADAR1^KD (Gray) patient-derived colorectal cancer cells (CRCs) treated with 5-AZA-CdR analyzed by qRT-PCR. Data are mean±s.e.m. (n=3 from three independent experiments). *P<0.05, **P<0.01, ****P<0.0001, Sidak-corrected two-way ANOVA.
C, Interferon-responsive gene expression in ADAR1^WT mock-treated (MT), 5-AZA-CdR treated, ADAR1^KD NT and ADAR1^KD p(I:C) transfected samples collected 5 days, 14 days and 24 days post-treatment, measured by RNA-seq.
D, Kinetics of interferon stimulated genes (ISG15, DDX58 and IRF7) relative expression in ADAR1^WT (Black) and ADAR1^KD (Gray) patient-derived CRCs transfected with p(I:C), analyzed by qRT-PCR. Data are mean±s.e.m. **P<0.01, ****P<0.0001, Sidak-corrected two-way ANOVA.
F, Interferon stimulated genes (ISG15, DDX58 and IRF7) relative expression in CTRL (LUC) (Black) and ADAR1^p150CE (Gray) patient-derived CRCs treated with 5-AZA-CdR, analyzed by qRT-PCR. Data are mean±s.e.m. **P<0.01, ***P<0.001, Sidak-corrected two-way ANOVA.
G, IFN enrichment score in CTRL(LUC) Mock-treated, 5-AZA-CdR treated, ADAR1-p150 overexpressing NT and ADAR1-p150 overexpressing 5-AZA-CdR treated samples collected 5 days post-treatment and measured by RNA-seq.
Based on these findings, we hypothesized that ADAR1 depletion would synergize with the viral mimicry response induced by DNMTi treatment. To assess how ADAR1 depletion affects 5-AZA-CdR treated samples, we performed RNA-seq analyses in patient-derived CRC cells. […] As a molecular read-out of dsRNA pattern recognition activation, we measured MAVS aggregation in the mitochondrial fraction of cell lysates^34. […] Taken together, our findings establish that ADAR1 acts as a negative feedback loop, restricting the viral mimicry response induced by DNMTi treatment in cancer cells.

The record followed here is patent publication US20230265524A1, “IMMUNOGENIC RETROELEMENTS AND THEIR USE IN CANCER THERAPY” (UNIVERSITY HEALTH NETWORK, priority 2020, published 2023).

For Poly(I:C), the “interferon-inducible isoform of ADAR1 (p150) expression” value in assay [1] was “acute up-regulation”. The “activation of ISGs” value in assay [2] is “comparable activation of ISGs across time-points”.
